# According to patent US20240316051A1, “A PHARMACEUTICAL COMBINATION AND USE THEREOF” (Ascentage Pharma (Suzhou) Co., Ltd., priority 2021, published 2024):
# What was measured:
# Format in all cases: in vivo, mice
# LnCap prostate xenograft = test: Subcutaneous LnCap prostate xenograft model (Example 25); conditions: day 17
# Method: (§1) A subcutaneous xenograft tumor model of human tumor immunodeficient mice was established by cell inoculation: tumor cells in logarithmic growth phase were collected, counted, resuspended in 1×PBS, and the cell suspension concentration was adjusted to 2.5-5×10^7/mL. The tumor cells were inoculated subcutaneously in the right side of immunodeficient mice with a 1 ml syringe ([…]), 5-10×10^6/0.2 mL/mouse. All animal experiments were strictly in accordance with the specifications for the use and management of experimental animals in GenePharma Co., Ltd. and Suzhou Ascentage Pharma Co., Ltd. The calculation of relevant parameters refers to the Chinese NMPA “Guidelines for Non-Clinical Research Techniques of Cytotoxic Anti-tumor Drugs”.
# (§2) Animal body weight and tumor size were measured twice weekly during the experiment. The state of the animal and the presence or absence of death were observed every day. The growth of tumor and the effects of treatment on normal behavior of animals were monitored routinely, specifically involving experimental animal activity, feeding and drinking, weight gain or loss, eyes, clothing hair and other abnormalities. The deaths and clinical symptoms observed during the experiment were recorded in the raw data. All operations for administration and measurement of mouse body weight and tumor volume were performed in a clean bench. According to the requirements of the experimental protocol, after the end of the last administration, plasma and tumor tissues were collected, weighed and photographed. The plasma and tumor samples were frozen at −80° C. for ready-to-use.
# (§3) Tumor volume (TV) is calculated as: TV=a×b^2/2, wherein a and b represent the length and width of the tumor to be measured, respectively.
# (§4) The relative tumor volume (RTV) is calculated as: RTV=Vt/V1, wherein V1 is the tumor volume at the start of grouping and administration, and Vt is the tumor volume measured on the t day after administration.
# (§5) The evaluation index of anti-tumor activity is the relative tumor proliferation rate T/C (%), and the calculation formula thereof is: relative tumor proliferation rate T/C (%)=(TRTV/CRTV)×100%, TRTV is the RTV of treatment group, CRTV is the RTV of solvent control group.
# (§6) A dose of drug is considered to be severely toxic if the body weight of mouse is reduced by more than 20% or the number of drug-related deaths exceeds 20%.
# According to the description by Clarke R., Issues in experimental design and endpoint analysis in the study of experimental cytotoxic agents in vivo in breast cancer and other models [J]. Breast Cancer Research & Treatment, 1997, 46(2-3): 255-278, synergy analysis was evaluated using the following formula: synergy factor=((A/C)×(B/C))/(AB/C); A=RTV value of drug A alone group; B=RTV value of drug B alone group; C=RTV value of the solvent control group, and AB=RTV value of the A and B combination group.
# In this experiment, subcutaneous LnCap prostate xenograft model was established to evaluate the anti-tumor effect of Compound 73 in combination with Compound C. The dosing regimen was as follows: • Compound C: 100 mg/kg, orally, every other day, for day 1-day 9; 50 mg/kg, orally, every other day, for day 10-day 28; • Compound 73: 100 mg/kg, orally, once per day, for a total of 28 days;
# The dosing regimen of each drug in the dosing regimen for the combination is the same as the dosing regimen for the single drug, for a total of 28 days.
# [1] = system: NCI-H226 (BAP1mut, CDKN2Adel, FGFR high) xenograft; test: NCI-H226 xenograft model (Examples 18-19); conditions: Compound 73 50 mg/kg, orally, once per day, 35 days
# Method: as §1
# as §2, with “All operations for administration and measurement of mouse body weight and tumor volume were performed in a clean bench. According to the requirements of the experimental protocol, after the end of the last administration, plasma and tumor tissues were collected, weighed and photographed.” left out
# as §3
# The relative tumor volume (RTV) is calculated as: RTV=Vt/V1, wherein V1 is the tumor volume at the start of grouping and administration, and Vt is the tumor volume measured on the t day after administration. […]
# Use of mRECIST (Gao et al., 2015) measured tumor responses included stable disease (SD), partial tumor regression (PR), and complete regression (CR), determined by comparing tumor volume change at day t to its baseline: tumor volume change (%)=(Vt−V1)/V1. […] For each time t, the average of tumor volume changes from t=1 to t was also calculated. […] Body weight of animals were monitored simultaneously. […]
# [2] = system: H226 (BAP1mut, UHRF1high, TP53WT, CDKN2Adel, FGFRhigh) subcutaneous mesothelioma xenograft; test: H226 subcutaneous mesothelioma xenograft model (Example 22); conditions: for RTV @ D 39: mean ± SEM
# Method: as §1, §2, §3, §4, §5
# Change of body weight (%)=(measured body weight-body weight at the start of grouping)/body weight at the start of grouping×100%.
# as §6
# In this experiment, H226 (BAP1mut, UHRF1high, TP53WT, CDKN2Adel, FGFRhigh) subcutaneous mesothelioma xenograft model was established to evaluate the anti-tumor effect of Compound 73 in combination with Compound C. The dosing regimen was as follows: • Compound C: 50 mg/kg, orally, every other day, for a total of 39 days; • Compound 73: 50 mg/kg, orally, once per day, for a total of 39 days; • Compound 73: 100 mg/kg, orally, once per day, for a total of 39 days.
# [3] = Compound 73 100 mg/kg orally once per day, alone or combined with Compound C 50 mg/kg every other day
# [4] = Compound C 50 mg/kg orally every other day, Compound 73 50 mg/kg orally once per day, alone or combined
smiles,measurement,setting,value
"CC(C)N1Cc2cc(C(F)(F)F)ncc2-c2cnc(NCc3c(F)ccc4c3CCO4)n3cnc(c23)C1=O [Compound 73, 12-(((5-fluoro-2,3-dihydrobenzofuran-4-yl)methyl)amino)-4-isopropyl-7-(trifluoromethyl)-4,5-dihydro-3H-2,4,8,11,12a-pentaazabenzo[4,5]cycloocta[1,2,3-cd]inden-3-one]",RTV@ D 17,"LnCap prostate xenograft; LnCap xenograft, Compound 73 100 mg/kg orally once per day, Compound C 100 mg/kg/50 mg/kg orally every other day",4.09 ± 0.75
same,T/C(%) @ D 17,"LnCap prostate xenograft; LnCap xenograft, Compound 73 100 mg/kg, Compound C 100 mg/kg/50 mg/kg",91.30%
same,T/C value,"LnCap prostate xenograft; Compound C 100 mg/kg every other day day 1-9 then 50 mg/kg day 10-28, Compound 73 100 mg/kg once per day, orally, alone or combined",91.30%
same,T/C (%),[1],48.6%
same,tumor response (mRECIST),[1],all the mice achieving stable disease (SD)
same,T/C (%) @ D 39,[2]; [3],59.73%
same,RTV @ D 39,[2]; [3],4.76 ± 0.61
same,T/C (%) @ D 39,[2]; [4],67.7%
same,RTV @ D 39,[2]; [4],5.39 ± 0.56
same,antitumor activity (in words),"[2]; single agents, 39 days (FIG. 10)",moderate antitumor activity
